How the values were obtained:
HepG-2 = assay: In vitro anti-proliferative activity, MTT assay, HepG-2; assay type: cell-based, human; conditions: for IC50: Homo sapiens, HepG2, MTT, 24 h treatment, mean ± S.D. of three separate experiments
Experimental: (§1) The cells were obtained from ATCC (American Type Culture Collection) via the Holding company for biological products and vaccines (VACSERA) (Cairo, Egypt). […] After incubation period, the cell lines were treated with different concentration of the synthesized compounds and incubated for 24 h. After treatment by 24 h, 20 μL of MTT solution (5 mg mL^−1) was added and incubated for 4 h. Dimethyl sulfoxide (100 μL) was added into each well to dissolve the formed purple formazan. […] The relative cell viability in percentage was calculated as (A570 of treated samples/A570 of untreated sample) X 100.

purified bovine tubulin = molecular target: T1, purified bovine tubulin (Bos taurus, UniProt P81947+Q6B856); assay: In vitro tubulin polymerization assay; assay type: biochemical; conditions: purified bovine tubulin 10 μM, 37 °C; read-out: IC50 Tubulin polymerization inhibition
T1 construct: purified bovine tubulin (10 μM); from tissue; host or cells: bovine
T1 sequence (Q6B856 whole entry): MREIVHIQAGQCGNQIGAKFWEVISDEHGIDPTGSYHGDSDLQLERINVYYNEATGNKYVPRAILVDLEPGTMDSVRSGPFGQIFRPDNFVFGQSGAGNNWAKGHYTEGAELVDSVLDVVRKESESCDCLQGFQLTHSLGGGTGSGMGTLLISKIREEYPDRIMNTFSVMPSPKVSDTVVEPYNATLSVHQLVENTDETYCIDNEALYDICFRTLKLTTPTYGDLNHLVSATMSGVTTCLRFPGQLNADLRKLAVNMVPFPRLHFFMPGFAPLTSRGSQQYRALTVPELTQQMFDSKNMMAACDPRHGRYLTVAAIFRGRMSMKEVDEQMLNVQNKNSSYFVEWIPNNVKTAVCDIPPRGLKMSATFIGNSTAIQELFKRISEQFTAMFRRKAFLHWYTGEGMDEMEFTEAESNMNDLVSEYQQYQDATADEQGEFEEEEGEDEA
T1 sequence (P81947 whole entry): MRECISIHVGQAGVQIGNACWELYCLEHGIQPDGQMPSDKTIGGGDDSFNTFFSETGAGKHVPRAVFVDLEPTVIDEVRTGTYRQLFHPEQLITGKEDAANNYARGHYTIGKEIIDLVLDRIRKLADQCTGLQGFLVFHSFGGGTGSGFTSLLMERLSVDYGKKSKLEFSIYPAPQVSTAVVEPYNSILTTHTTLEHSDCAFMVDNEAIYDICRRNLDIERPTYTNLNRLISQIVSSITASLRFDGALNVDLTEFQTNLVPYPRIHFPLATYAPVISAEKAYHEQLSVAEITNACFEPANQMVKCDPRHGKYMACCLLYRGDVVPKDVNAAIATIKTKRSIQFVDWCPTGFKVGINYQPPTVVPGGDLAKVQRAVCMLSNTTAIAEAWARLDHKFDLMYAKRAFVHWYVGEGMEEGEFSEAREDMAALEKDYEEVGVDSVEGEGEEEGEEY
Experimental: The inhibition assay on microtubule polymerization was evaluated turbidimetrically using a fluorescent plate reader.[52]

HepG-2 cells [1] = assay: Cell cycle analysis (PI staining, flow cytometry); assay type: cell-based, human
Experimental: To gain a better insight into the impact of compound 5a on cancer cell growth inhibition, its impact on cell cycle distribution and apoptosis induction was assessed using HepG-2 cells according to the method outlined by Wang et al.[53] In fact, anticancer agents hinder cancer cell growth and multiplication by arresting cell division at distinct checkpoints, and that cells resist apoptosis are highly resistant to cancer treatment.[54]
HepG-2 cells were seeded at density of 2 × 10^5 cells per well and incubated for 24 h in six-well plates. Fetal bovine serum (FBS, 10%) was added, after that cells were incubated at 37 °C and 5% CO2. The medium was replaced with (DMSO 1% v/v) containing the 2.5 μM of compound 5a, then incubated for 48 h, washed with cold phosphate buffered saline (PBS), fixed with 70% ethanol, rinsed with PBS then stained with the DNA fluorochrome PI, kept for 15 min at 37 °C. Then samples were analyzed with a FACS Caliber flow cytometer.[53]

HepG-2 cells [2] = assay: Annexin V-FITC apoptosis assay; assay type: cell-based, human; conditions: HepG-2, 5a at 2.5 μM for 24 h
Experimental: To further confirm Apoptotic effect of compound 5a in HepG-2 cells, Annexin V and PI double staining assay was performed.[55] In this test, HepG-2 cells were incubated with compound 5a at concentration of 2.5 μM for 24 h.
The effect of the most cytotoxic compound 5a on apoptosis induction was analyzed using Annexin V-FITC/PI apoptosis detection kit. In this test, HepG-2 cells were stained with Annexin V fluorescein isothiocyanate (FITC) and counterstained with propidium iodide (PI). Then, HepG-2 cells in a density of 2 × 10^5 per well were incubated with compound 5a for […]. Next, the cells were trypsinized, washed with phosphate-buffered saline (PBS), and stained for 15 min at 37 °C in the dark. Finally, FACS Caliber flow cytometer was used in analysis process.[55]

MCF-7 = assay: In vitro anti-proliferative activity, MTT assay, MCF-7; assay type: cell-based, human; conditions: for IC50: Homo sapiens, MCF7, MTT, 24 h treatment, mean ± S.D. of three separate experiments
Experimental: as §1

HCT-116 = assay: In vitro anti-proliferative activity, MTT assay, HCT-116; assay type: cell-based, human; conditions: for IC50: Homo sapiens, HCT-116, MTT, 24 h treatment, mean ± S.D. of three separate experiments
Experimental: as §1

SMILES | IC50 (HepG-2) [µM] | times as active as colchicine against HepG-2 (HepG-2; ratio of IC50 values) [times] | IC50 (purified bovine tubulin) [µM] | melting point [°C] | Cell cycle distribution % Pre-G1 (HepG-2 cells [1]; HepG-2, 5a at 2.5 μM for 48 h, control 2.14) [%] | Cell cycle distribution % G2-M (HepG-2 cells [1]; HepG-2, 5a at 2.5 μM for 48 h, control 5.09) [%] | Cell cycle distribution % S (HepG-2 cells [1]; HepG-2, 5a at 2.5 μM for 48 h, control 38.15) [%] | Cell cycle distribution % G0-G1 (HepG-2 cells [1]; HepG-2, 5a at 2.5 μM for 48 h, control 56.76) [%] | effect on cell cycle (HepG-2 cells [1]; HepG-2 cells) | Necrosis (HepG-2 cells [2]; control 0.48) [%] | Apoptosis Late (HepG-2 cells [2]; control 0.64) [%] | Apoptosis Early (HepG-2 cells [2]; control 1.02) [%] | Apoptosis Total (HepG-2 cells [2]; control 2.14) [%] | IC50 (MCF-7) [µM] | times as active as colchicine against MCF-7 (MCF-7; ratio of IC50 values) [times] | IC50 (HCT-116) [µM] | times as active as colchicine against HCT-116 (HCT-116; ratio of IC50 values) [times]
C/C(=N\NC1=N/C(=C/c2cccs2)C(=O)S1)c1ccc(C)cc1 [Compound 5a, (E)-4-(Thiophen-2-ylmethylene)-2-(2-((E)-1-(p-tolyl)ethylidene)hydrazinyl) thiazol-5(4H)-one] | 3.34 ± 0.1 | 2.23 | 0.00952 ± 0.0003 | 202 to 204 | 15.33 | 20.55 | 39.28 | 40.17 | cell arrest at G2/M phase | 1.54 | 5.54 | 8.25 | 15.33 | 4.51 ± 0.6 | 2.32 | 6.41 ± 0.1 | 1.45
C/C(=N\NC1=N/C(=C/c2ccc(O)cc2)C(=O)S1)c1ccco1 [Compound 8i, 2-(2-((E)-1-(Furan-2-yl)ethylidene)hydrazinyl)-4-((E)-4-hydroxybenzylid-ene)thiazol-5(4H)-one] | 12.5 ± 0.2 |  | 0.0478 ± 0.0021 | 293 to 295 |  |  |  |  |  |  |  |  |  | 22.7 ± 0.7 |  | 15.6 ± 0.4 | 
COc1ccc(/C=C2/N=C(N/N=C(\C)c3ccco3)SC2=O)cc1OC [Compound 8k, 4-((E)-3,4-Dimethoxybenzylidene)-2-(2-((E)-1-(furan-2-yl)ethylidene)hydra-zinyl)thiazol-5(4H)-one] | 4.58 ± 0.1 |  | 0.0135 ± 0.0008 | 240 to 242 |  |  |  |  |  |  |  |  |  | 9.15 ± 0.2 |  | 5.55 ± 0.1 | 
C/C(=N\NC1=N/C(=C/c2ccc(O)cc2O)C(=O)S1)c1ccco1 [Compound 8l, 4-((E)-2,4-Dihydroxybenzylidene)-2-(2-((E)-1-(furan-2-yl)ethylidene) hydrazinyl) thiazol-5(4H)-one] | 3.73 ± 0.1 |  | 0.0132 ± 0.0009 | 282 to 284 |  |  |  |  |  |  |  |  |  | 7.89 ± 0.5 |  | 10.28 ± 0.1 | 
C/C(=N\NC1=N/C(=C/c2cccs2)C(=O)S1)c1cccs1 [Compound 9a, (E)-2-(2-((E)-1-(Thiophen-2-yl)ethylidene)hydrazinyl)-4-(thiophen-2-ylmethylene)thiazol-5(4H)-one] | 21.9 ± 0.9 |  | 0.0391 ± 0.001 | 214 to 216 |  |  |  |  |  |  |  |  |  | 33.6 ± 0.9 |  | 24.2 ± 0.7 | 
